# Legend:
# Conditions in all cases: 72 h
# Calu-3 [1] = experiment: relative viability EC50 (midpoint between 100% and the lowest measured viability); higher = less toxic
# Vero E6 [2] = experiment: cell viability relative to DMSO; higher = less toxic
# Calu-3 [3] = experiment: as above
# U2OS [4] = experiment: as above
# Caco-2 [5] = experiment: as above
# HepG2 [6] = experiment: as above
# Vero E6 [7] = experiment: drug sensitivity score (DSS) for viability; higher = more toxic; extreme values may be limits of the assay
# Calu-3 [8] = experiment: as above
# U2OS [9] = experiment: as above
# Caco-2 [10] = experiment: as above
# HepG2 [11] = experiment: as above
# U2OS [12] = experiment: relative viability EC50 (midpoint between 100% and the lowest measured viability); higher = less toxic
# HepG2 [13] = experiment: as above
# Vero E6 [14] = experiment: as above
SMILES,relative viability EC50 (Calu-3 [1]) [nM],cell viability (Vero E6 [2]; 1 nM) [%],cell viability (Vero E6 [2]; 10 nM) [%],cell viability (Vero E6 [2]; 100 nM) [%],cell viability (Vero E6 [2]; 1000 nM) [%],cell viability (Vero E6 [2]; 10000 nM) [%],cell viability (Calu-3 [3]; 1 nM) [%],cell viability (Calu-3 [3]; 10 nM) [%],cell viability (Calu-3 [3]; 100 nM) [%],cell viability (Calu-3 [3]; 1000 nM) [%],cell viability (Calu-3 [3]; 10000 nM) [%],cell viability (U2OS [4]; 1 nM) [%],cell viability (U2OS [4]; 10 nM) [%],cell viability (U2OS [4]; 100 nM) [%],cell viability (U2OS [4]; 1000 nM) [%],cell viability (U2OS [4]; 10000 nM) [%],cell viability (Caco-2 [5]; 1 nM) [%],cell viability (Caco-2 [5]; 10 nM) [%],cell viability (Caco-2 [5]; 100 nM) [%],cell viability (Caco-2 [5]; 1000 nM) [%],cell viability (Caco-2 [5]; 10000 nM) [%],cell viability (HepG2 [6]; 1 nM) [%],cell viability (HepG2 [6]; 10 nM) [%],cell viability (HepG2 [6]; 100 nM) [%],cell viability (HepG2 [6]; 1000 nM) [%],cell viability (HepG2 [6]; 10000 nM) [%],drug sensitivity score (Vero E6 [7]),drug sensitivity score (Calu-3 [8]),drug sensitivity score (U2OS [9]),drug sensitivity score (Caco-2 [10]),drug sensitivity score (HepG2 [11]),relative viability EC50 (U2OS [12]) [nM],relative viability EC50 (HepG2 [13]) [nM],relative viability EC50 (Vero E6 [14]) [nM]
COc1ccc(-n2nc(CCC(=O)N(C)O)cc2-c2ccc(Cl)cc2)cc1 [tepoxalin],> 10000,98.2,99.9,99.5,99.9,64.7,97.5,110,102,106,110,97.1,95.7,96.7,94.6,61.8,103,112,116,99.4,59.8,107,106,96.4,96.6,73.8,1.7,0,2.8,2.1,1.6,,,
CC(=O)c1ccc2c(c1)C(=O)C1(CC1)O2 [spizofurone],,,,,,,,,,,,,,,,,,,,,,,,,,,0,0,0,,0,,,
COc1ccc(-c2cc(=O)c3c(O)cc(O[C@@H]4O[C@H](CO[C@@H]5O[C@@H](C)[C@H](O)[C@@H](O)[C@H]5O)[C@@H](O)[C@H](O)[C@H]4O)cc3o2)cc1O [diosmin],,,,,,,,,,,,,,,,,,,,,,,,,,,0,0,0,,0,,,
C=CC(=O)Nc1cc2c(Nc3ccc(F)c(Cl)c3)ncnc2cc1OCCCN1CCOCC1 [canertinib],132,98.5,93.1,86.3,65.6,51,100,89.8,70.2,41.2,30.1,97.1,98.5,93.1,96.1,89.9,91.7,90.3,81.6,81.5,69.5,105,97.6,105,95.5,90.5,7.8,14.8,0,5.4,0,> 10000,> 10000,
CN(C)CCCC1(c2ccc(F)cc2)OCc2cc(C#N)ccc21 (centres undefined) [citalopram],,,,,,,,,,,,,,,,,,,,,,,,,,,0,0,0,,0,,,
COc1cc(C=O)c([N+](=O)[O-])cc1OC [DMNB],> 10000,103,100,99.2,96.9,96.6,102,102,103,96.9,107,,,,,,,,,,,,,,,,0,0,,,,,,> 10000
O=C(c1cccc(Cl)c1F)N1CCN(Cc2cccc(Nc3nccs3)n2)CC1 [MK-8745],> 10000,99.2,101,99,90.2,78,92.6,88.5,92,85.1,92.2,102,99.5,98.5,98.4,69.1,92.1,94.2,91.7,86.5,70.7,105,115,101,54.7,37.7,1.6,0,1.6,2.8,8.7,,676,> 10000
Nc1nc(Nc2ccc(S(N)(=O)=O)cc2)nn1C(=O)c1c(F)cccc1F,4320,107,104,106,99.1,68.7,102,97.1,98.1,127,33.2,102,102,100,104,2.1,107,100,101,106,63.7,103,103,92.8,76.7,8.9,1.5,2.6,5.1,1.4,8.6,3410,1530,
COC(=O)Nc1nc2cc(C(=O)c3ccc(F)cc3)ccc2[nH]1 [flubendazole],,94.9,102,92.4,79,41.8,94.2,87.9,98.8,97.6,72.3,98.2,107,102,95.4,54.6,93,96.7,101,87.3,54.6,96.8,95.7,92.4,63.4,40.4,5.5,1.5,3.1,4.3,7.9,,619,1380
Cc1cnc(C(=O)NCCc2ccc(S(=O)(=O)NC(=O)NC3CCCCC3)cc2)cn1 [glipizide],,,,,,,,,,,,,,,,,,,,,,,,,,,0,0,0,,0,,,
CC(C)(C)c1cc(C(=O)/C=C/c2ccc(C(=O)O)cc2)cc(C(C)(C)C)c1 [CH55],> 10000,,,,,,92,92.1,76.9,87.5,77.8,98.2,97.3,91,97.7,64.4,102,87.3,90.8,93.3,67,109,113,120,105,91.9,,4.3,2,2.4,0,,> 10000,
CNC(=O)c1ccccc1Nc1cc(Nc2ccc(N3CCOCC3)cc2OC)ncc1C(F)(F)F [VS-4718],,103,101,85.8,69.2,54.4,108,97,86.4,68.3,74.5,98.5,94.2,95.2,82.1,35.1,102,91.8,96.4,82.5,62.5,98.6,93.2,99.1,65,19.3,7,6.6,6.2,3.6,9,1500,1120,
CC(=O)/N=c1/[nH]c(C)c(-c2ccc(Cl)c(S(=O)(=O)NCCO)c2)s1 [PIK-93],1490,106,105,99,96.9,78.6,103,102,91,81.2,41.9,102,106,98.1,90.8,58.6,94,109,92.5,93.5,58.9,91.8,92.7,83.9,71.6,34.7,1.1,5.3,3.6,3.2,7.8,,744,> 10000
O=C(Nc1cccc(Cl)c1)Nc1ncc(CCNc2ncnc3ccsc23)s1 [SNS-314],,103,103,86.3,89.9,93.2,,,,,,98.5,102,88.2,90.4,74.8,92.8,99,90.4,85.8,69,92.8,96.8,76.3,67.5,41.6,1.8,,1.9,2.9,9.2,,315,> 10000
CC(C)NC(=O)N1CC[C@H](NC2=Nc3cc(F)ccc3N(CC(F)F)c3ccc(Cl)cc32)C1 [NVS-PAK1-1],1820,99.8,101,108,92.3,31.4,103,112,91.9,90,44.8,104,104,98.7,93.4,51.3,84.8,120,90.9,110,56.4,108,104,93.6,97.3,93.4,5,4.6,3.7,1.7,0,,> 10000,2240
CCN1CCN(c2cc3c(cc2F)c(=O)c(C(=O)O)cn3C2CC2)CC1 [enrofloxacin],,,,,,,,,,,,,,,,,,,,,,,,,,,0,0,0,,0,,,
O=C1C2CCN(CC2)C1(CO)CO [PRIMA1],> 10000,87,92.6,89.6,94.2,99.5,105,99,103,87.6,95.7,98.8,95.7,101,98.1,70,95.1,91.6,102,96.3,66.9,94.5,97.6,81,97.9,104,0,0.6,1.6,2.1,0,,> 10000,> 10000
